Assay results: PMC10046901, “Molecular Analysis of the Superior Efficacy of a Dual Epidermal Growth Factor Receptor (EGFR)-DNA-Targeting Combi-Molecule in Comparison with Its Putative Prodrugs 6-Mono-Alkylamino- and 6,6-Dialkylaminoquinazoline in a Human Osteosarcoma Xenograft Model” (Cells, 2023)

Key:
ɣ-H2AX phosphorylation = experiment: P-H2AX in tumor tissue (immunohistochemistry, Western blot); type: in vivo, human; settings: tumors 3 h after last dose, 80 mg/kg, N = 4
Procedure: In order to study the drug pharmacokinetics, 1 last dose (the 11th dose) was administered 3 h prior to sacrifice and after a break of 5 days from the previous drug administration.
At the end of the study, the mice were sacrificed, and the plasma and tumors were collected. The plasma was stored at −80 °C, and the tumor tissues were transversely cut into 2 parts: 1 was immediately frozen in liquid nitrogen and stored at −80 °C for Western blots and LC-MS analysis; the other was fixed in 4% paraformaldehyde and used for histology.
The tumors were fixed for 36 h in 4% paraformaldehyde, transferred to 70% EtOH and paraffin-embedded. Sections 4 µm thick were deparaffinized, rehydrated and incubated for 20 min at 37 °C with anti-P-EGFR (1–100, ab40815, Abcam, Cambridge, UK) or anti-P-H2AX (1–100, sc-517348, Santa Cruz Biotechnology, Dallas, TX, USA), followed by secondary Ab incubation with OmniMap anti-Rb HRP (760–4311, Roche, Basel, Switzerland) at room temperature for 16 min, followed by the detection kit ChromoMap Kit (760–4304, Roche, Basel, Switzerland), and the slides were then counterstained with hematoxylin, dehydrated, cleared and cover-slipped. The slides were digitally scanned using an Aperio scanner scope XT.
The tumor tissue samples were smashed with liquid nitrogen into a mortar, and the tumor powders were transferred to cold RIPA 1x buffer with an anti-protease and anti-phosphatase inhibitor cocktail (Roche, Basel, Switzerland) in ice for 1 h and sonicated. After centrifugation, the proteins were quantified and mixed in Laemmli buffer (Sigma-Aldrich, St. Louis, MO, USA), maintaining the same concentration.
Cell lysates or tissue lysates were loaded onto 4–20% SDS-PAGE gels (mini-protean TGx stain-free, Bio-Rad, Hercules, CA, USA) and transferred to PVDF membranes that were pre-wetted with methanol. […] The quantification of the immunoblots was performed on digitalized images using ImageLab Software 6.1 (Bio-Rad, Hercules, CA, USA). […]

U2-OS = experiment: cells; type: cell-based; settings: Homo sapiens, U2OS, 120 h, read-out: IC50 growth inhibition
KHOS/NP = experiment: cells; type: cell-based; settings: Homo sapiens, 120 h, read-out: IC50 growth inhibition
MNNG/HOS = experiment: cells; type: cell-based; settings: 120 h, read-out: IC50 growth inhibition
MG-63 = experiment: cells; type: cell-based; settings: Homo sapiens, MG-63, 120 h, read-out: IC50 growth inhibition

| Structure (SMILES) | ɣ-H2AX phosphorylation in tumors vs control (ɣ-H2AX phosphorylation) | IC50 (U2-OS) [nM] | IC50 (KHOS/NP) [nM] | IC50 (MNNG/HOS) [nM] | IC50 (MG-63) [nM] |
| --- | --- | --- | --- | --- | --- |
| ClCCNc1ccc2ncnc(Nc3cccc(Br)c3)c2c1 [ZR2002] | enhanced in comparison with the control, even if it was not statistically significant | 80 ± 10 | 190 ± 30 | 310 ± 90 | 450 ± 80 |
| ClCCN(CCCl)c1ccc2ncnc(Nc3cccc(Br)c3)c2c1 [JS61] | low levels of H2AX phosphorylation | 1390 ± 20 | 6830 ± 500 | 5860 ± 150 | 12500 ± 610 |
| CN(CCCl)c1ccc2ncnc(Nc3cccc(Br)c3)c2c1 [JS84] | low levels of H2AX phosphorylation | 180 ± 30 | 1380 ± 300 | 880 ± 430 | 5040 ± 980 |
